Data: BindingDB's records for doi:10.1021/cb900264w (The Weizmann Institute of Science, 2010)

Tests used:
[1] = biological target: T1, Amine oxidase [flavin-containing] B (Rattus norvegicus, UniProt P19643); test: Enzyme Inhibition Assay; details: pH 7.4; 37 °C
T1 sequence (P19643 whole entry): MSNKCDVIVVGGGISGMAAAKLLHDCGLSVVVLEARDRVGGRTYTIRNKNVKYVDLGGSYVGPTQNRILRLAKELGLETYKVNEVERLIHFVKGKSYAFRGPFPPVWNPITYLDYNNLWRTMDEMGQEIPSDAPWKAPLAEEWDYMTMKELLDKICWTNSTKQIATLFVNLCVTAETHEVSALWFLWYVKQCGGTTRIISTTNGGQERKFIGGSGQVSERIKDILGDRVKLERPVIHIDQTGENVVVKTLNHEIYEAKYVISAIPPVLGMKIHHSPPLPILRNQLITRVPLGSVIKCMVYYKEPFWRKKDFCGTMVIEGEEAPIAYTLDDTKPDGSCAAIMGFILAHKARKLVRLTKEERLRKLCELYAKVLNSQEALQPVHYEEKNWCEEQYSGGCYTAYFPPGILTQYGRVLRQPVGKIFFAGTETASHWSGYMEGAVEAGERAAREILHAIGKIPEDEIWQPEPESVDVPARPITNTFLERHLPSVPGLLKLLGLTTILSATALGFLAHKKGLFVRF
Excerpt: (§1) Inhibition of MAO activity in rat brain homogenates.

[2] = biological target: T2, Amine oxidase [flavin-containing] A (Rattus norvegicus, UniProt P21396); test: Enzyme Inhibition Assay; details: pH 7.4; 37 °C
T2 sequence (P21396 whole entry): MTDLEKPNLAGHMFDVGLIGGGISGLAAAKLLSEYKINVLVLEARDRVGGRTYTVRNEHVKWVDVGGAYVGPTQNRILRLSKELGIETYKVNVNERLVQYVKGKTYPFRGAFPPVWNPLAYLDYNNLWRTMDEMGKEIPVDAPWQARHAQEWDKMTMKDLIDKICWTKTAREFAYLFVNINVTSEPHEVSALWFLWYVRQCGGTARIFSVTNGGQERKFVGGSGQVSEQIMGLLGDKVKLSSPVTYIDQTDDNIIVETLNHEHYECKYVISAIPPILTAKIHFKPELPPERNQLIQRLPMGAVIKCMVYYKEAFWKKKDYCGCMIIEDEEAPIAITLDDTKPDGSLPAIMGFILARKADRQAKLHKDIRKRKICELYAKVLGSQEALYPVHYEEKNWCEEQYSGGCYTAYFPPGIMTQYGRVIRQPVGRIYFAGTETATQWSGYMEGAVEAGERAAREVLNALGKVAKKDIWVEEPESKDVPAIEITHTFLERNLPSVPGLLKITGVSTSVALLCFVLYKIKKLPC
Excerpt: as §1

Row | Structure (SMILES) | IC50 [1] | IC50 [2]
1 | C#CCN(C)Cc1ccc(O)c2ncccc12 [Chelator, M30] | 37 nM | –
2 | C#CCN(C)Cc1ccc(OC(=O)N(C)C)c2ncccc12 [Prochelators, 2] | 7900 nM | 7.7 nM
3 | C#CCN(C)Cc1ccc(OC(=O)N(C)CC)c2ncccc12 [Prochelators, 3] | – | 9.6 nM
